# Legend:
# Type in all cases: in vivo, Sprague-Dawley rats
# [1] = test system: Hypertension-Induced Renal Disease Rat Model (L-NAME); assay: Renal hemodynamics (arterial pressure, renal blood flow) in L-NAME hypertension-induced renal disease rat model; conditions: for MAP (mean arterial pressure): L-NAME orally 15 mg/kg/day
# Method: (§1) Male Sprague-Dawley rats, weighing 250 g, were maintained on a normal-salt diet and had free access to chow and tap water. NO synthesis was inhibited by L-NAME (orally, 15 mg·kg-1·day-1). […] When proteinuria exceeded 1 g/mmol creatinine (after 5 or 6 weeks), a group of animals was killed to allow estimations of renal hemodynamics and morphological parameters just before the beginning of therapy (LN 6w group, n=10). The remaining animals were divided into two subgroups for an additional experimental period of 4 weeks: in the first subgroup, L-NAME was given alone (LN 10w group, n=12); in the second subgroup treatment was accompanied by the administration of an AT1 receptor antagonist (Losartan, orally 30 mg·kg-1·day-1, Merck Sharp and Dohme-Chibret). At the end of Losartan treatment, we separated the animals of the second group in two subgroups: animals with normal creatininemia below 50 μmol/l (LN reg n=14) and animals with a creatininemia above 70 μmol/l (LN no reg n=15). The doses of the drugs were based on pilot experiments and previously published studies. Control animals were sacrificed at 6 and 10 week. Since control animals gave similar results for all measured parameters, pooled data are presented (C group, n=8). Others animals received Losartan during 4 weeks as additional control group (LOS group, n=3). All protocols and treatments were performed with the approval of the French government ethics committee.
# After anesthesia by pentobarbital sodium (50-60 mg/kg body wt ip, Nembutal, Abbott, Chicago, Ill.), animals were placed on a servo-controlled table kept at 37° C. and the trachea was cannulated to facilitate respiration. The left femoral artery was catheterized for measurement of arterial pressure, and a femoral venous catheter was used for infusion of volume replacement. An ultrasound transit-time flow probe (1RB, Transonic, Ithaca, N.Y.) was placed around the left renal artery. Bovine serum albumin (4.7 g/dl of saline solution) was infused initially at 50 μl/min to replace surgical losses, and then at 10 μl/min for maintenance. Arterial pressure was measured via a pressure transducer (Statham P23 DB); RBF was measured by a flowmeter (T 420, low-pass filter, 40 Hz, Transonic). RBF values were controlled for zero offset determined at the end of an experiment after cardiac arrest. Data were recorded, stored, and analyzed using a DataTranslation analog-to-digital converter and the IOX software (EMKA Technologies, Paris, France).
# [2] = test system: Hypertension-Induced Renal Disease Rat Model (L-NAME); assay: Urinary protein excretion and plasma creatinine in L-NAME rat model
# Method: as §1, with “committee. Urine samples were collected for a 4-h period. Urinary protein concentration was normalized to creatinine concentration, and values were expressed as grams protein per millimole creatinine. Blood samples were withdrawn on the last day of the study, and plasma creatinine […] was measured by automated Jaffe's method.” for “committee.”
# [3] = test system: periostin, vimentin expression in renal cortex; assay: Real time quantitative PCR (and immunoblotting) of markers in renal cortex of L-NAME rat model; conditions: for periostin mRNA up-regulation in kidney (RT-qPCR): rats, versus baseline
# Method: Male Sprague-Dawley rats, weighing 250 g, were maintained on a normal-salt diet and had free access to chow and tap water. NO synthesis was inhibited by L-NAME (orally, 15 mg·kg-1·day-1). […] When proteinuria exceeded 1 g/mmol creatinine (after 5 or 6 weeks), a group of animals was killed to allow estimations of renal hemodynamics and morphological parameters just before the beginning of therapy (LN 6w group, n=10). The remaining animals were divided into two subgroups for an additional experimental period of 4 weeks: in the first subgroup, L-NAME was given alone (LN 10w group, n=12); in the second subgroup treatment was accompanied by the administration of an AT1 receptor antagonist (Losartan, orally 30 mg·kg-1·day-1, Merck Sharp and Dohme-Chibret). At the end of Losartan treatment, we separated the animals of the second group in two subgroups: animals with normal creatininemia below 50 μmol/l (LN reg n=14) and animals with a creatininemia above 70 μmol/l (LN no reg n=15). The doses of the drugs were based on pilot experiments and previously published studies. Control animals were sacrificed at 6 and 10 week. Since control animals gave similar results for all measured parameters, pooled data are presented (C group, n=8). Others animals received Losartan during 4 weeks as additional control group (LOS group, n=3). All protocols and treatments were performed with the approval of the French government ethics committee. We extracted RNA from the renal cortex and the abdominal aorta using TRIzol solution (Life Technologies BRL, Gaithersburg, Md.). RNA quality was checked by measuring the ratio of optical densities at 260 and 280 nm and residual genomic DNA was removed by DNase I treatment for 30 min at 37° C. (Fermentas). We used reverse transcription with Revert Aid H minus First Strand DNA Synthesis kit (Fermentas) to convert 1 μg RNA into cDNA, which was then amplified by PCR using a LightCycler 480 (Roche Diagnostic) using SYBR Green (Fast Start DNA Master SYBRGreen I; Roche Applied Science, Roche Diagnostic), specific primers for POST, Col3A1, ESel, Vimentin, VCAM-1 and hypoxanthine-guanine phosphoribosyltransferase (HPRT) as housekeeping gene under the following conditions: 95° C. for 5 min, and 45 cycles at 95° C. for 15 s and 60° C. for 15 s, then 72° C. for 15 s. Specific primers were designed by Universal Probe Library system (UPL, Roche Applied Science). To normalize the Q-PCR results we used Roche LightCycler 2.0 software (Roche Diagnostic). We expressed results as 2-[…], where Cp is the cycle threshold number. We analyzed dissociation curves after each run for each amplicon to access the specificity of quantification when using SYBR Green. 25 μg of protein extracts obtained by RIPA buffer lysis of renal cortex were fractionated by SDS-PAGE NuPAGE 4/12% gels (Invitrogen) under reducing conditions using an XCell SureLockTM Mini-Cell (NuPAGE, Invitrogen, San Diego, Calif., USA) as described by the manufacturer and transferred onto a nitrocellulose membrane (Immobilon-P, Millipore, Billerica, Mass., USA) prior to detection of the POST (Biovendor) or β-actin (Imgenex, Clinisciences, France) protein with a specific rabbit polyclonal primary Ab (dilution 1/1000 and 1/5000 respectively) and a peroxidase-labelled IgG anti-rabbit secondary Ab (dilution 1/4000). The membrane was detected by enhanced chemiluminescence (ECL)-plus kit (Amersham Biosciences, Piscataway, N.J., USA) on autoradiography films (Fuji).
# [4] = test system: CD3+ lymphocytes in renal cortex; assay: Immunohistochemistry for CD3 in kidney of L-NAME rat model; conditions: rats, after 6 and 10 weeks LNAME treatment
# Method: as §1, with “[…] Quantification of CD3-positive cells was” for “Others animals received Losartan during 4 weeks as additional control group (LOS group, n=3). All protocols and treatments were”, “using Olympus analysis software.” for “with the approval of the French government ethics committee.”
# [5] = all losartan-treated groups compared to L-NAME 6w and 10w groups
Structure (SMILES),"MAP (mean arterial pressure) ([1]; rats, 6 weeks treatment) [mmHg]","MAP (mean arterial pressure) ([1]; rats, 10 weeks treatment) [mmHg]","renal blood flow ([1]; rats, from 6 weeks LNAME treatment onwards)","proteinuria ([2]; rats, L-NAME, week 6) [g/mmol creatininuria]","creatininemia ([2]; rats, L-NAME, week 10) [µmol/L]",periostin mRNA up-regulation in kidney (RT-qPCR) ([3]; after 6 weeks LNAME) [fold],periostin mRNA up-regulation in kidney (RT-qPCR) ([3]; after 10 weeks LNAME) [fold],CD3+ lymphocyte count [4],"renal hemodynamic alterations [1, 5]","creatininemia ([2]; after 4 weeks Losartan (30 mg/kg/day orally)+LNAME, ""No Regression"" (NOREG) group) [µmol/L]","creatininemia ([2]; after 4 weeks Losartan (30 mg/kg/day orally)+LNAME, ""Regression"" (REG) group) [µmol/L]","proteinuria [2, 5]","periostin expression in renal cortex ([3]; L-NAME+losartan 4 weeks, NOREG group)","periostin mRNA and protein expression in renal cortex ([3]; L-NAME+losartan 4 weeks, REG group)","vimentin mRNA expression in renal cortex ([3]; after initiation of losartan in L-NAME rats, irrespective of the REG/NOREG group)"
"COC(=O)[C@@H](N)CCCNC(=N)N[N+](=O)[O-] [LNAME, L-NAME]",211±7,212±5,striking reduction,1.3±0.2,100 ± 14,13,18,strongly increased,–,–,–,–,–,–,–
CCCCc1nc(Cl)c(CO)n1Cc1ccc(-c2ccccc2-c2nn[nH]n2)cc1 [Losartan],–,–,–,–,–,–,–,–,ameliorated,76 ± 3,50 ± 2,ameliorated,persistent increase,significantly blunted,sharp decrease

# Source: US20140080128A1, “METHOD FOR DETERMINING WHETHER A SUBJECT IS AT RISK OF HAVING OR DEVELOPING A CHRONIC KIDNEY DISEASE” (Institut National de Ia Sante et de la Recherche Medicale …, priority 2011, published 2014)
